Our source for the activation values is patent US20260315434A1, “USE OF GUAIACOL SESQUITERPENE LACTONE DERIVATIVES” (NANJING UNIVERSITY OF CHINESE MEDICINE, priority 2023, published 2026).

This assay relates to T cells / MDSCs. As to the kind of experiment: Promotion of T cell proliferation in a co-culture model of MDSCs and T cells. It is filed as cell-based, mouse. To be noted: Mus musculus, T-cell, 12 h, read-out: T-cell proliferation rate (%), 1 μM, MDSCs treated 12 hours, co-culture of MDSCs and T cells, compared to the control group. Here is the method: Under sterile conditions, the tibia was removed, both ends of the bone were cut, and bone marrow was repeatedly flushed into a 15 mL centrifuge tube using a 1 mL syringe filled with culture medium. Centrifuge at 1600 rpm for 5 min to collect bone marrow cells. […] The spleen cell suspension was then transferred into a 15 mL centrifuge tube. Centrifuge at 1600 rpm for 5 min to collect T cells. Wash twice with 1×PBS. Resuspend the centrifuged T cells in 1 mL PBS and add 1 mL of 10 μM CFDA-SE solution. Incubate at room temperature for 8 min. […] After drug administration, collect MDSC cells into centrifuge tubes. Centrifuge at 1600 rpm for 5 min, remove supernatant, resuspend in 1 mL fresh medium, and plate. Add 1 mL stimulated activated T cells (1:1 ratio) for 48 h co-culture. After incubation, collect cells into centrifuge tubes, wash twice with PBS, and incubate with Fc antibody at room temperature in the dark for 10 min. Add CD3-labeled flow cytometry antibody and incubate at 4° C. in the dark for 30 min. After incubation, wash cells with PBS, resuspend in 300 μL PBS, and analyze by flow cytometry.
`C=C1C(=O)O[C@H]2[C@H]1CCC(C)=C1CC[C@@](C)(OC(=O)NC3CC3)[C@@H]12` [Compound 70]: the activation at 1 µM is 0 to 20%. To `C=C1C(=O)O[C@H]2[C@H]1CCC(C)=C1CC[C@@](C)(OC(=O)NCCO)[C@@H]12` [Compound 71] belongs greater than 40%. To `C=C1C(=O)O[C@H]2[C@H]1CCC(C)=C1CC[C@@](C)(OC(=O)NCCCO)[C@@H]12` [Compound 72] belongs 20 to 40%; to `C=C1C(=O)O[C@H]2[C@H]1CCC(C)=C1CC[C@@](C)(OC(=O)NCCCCCO)[C@@H]12` [Compound 73], 20 to 40%. To `C=C1C(=O)O[C@H]2[C@H]1CCC(C)=C1CC[C@@](C)(OC(=O)NCCOC)[C@@H]12` [Compound 74] belongs greater than 40%.

For `C=C1C(=O)O[C@H]2[C@H]1CCC(C)=C1CC[C@@](C)(OC(=O)NCCCOC)[C@@H]12` [Compound 75], the activation at 1 µM is 20 to 40%. To `C=C1C(=O)O[C@H]2[C@H]1CCC(C)=C1CC[C@@](C)(OC(=O)NCCOCCO)[C@@H]12` [Compound 76] belongs 20 to 40%. To `C=C1C(=O)O[C@H]2[C@H]1CCC(C)=C1CC[C@@](C)(OC(=O)NCCN(C)C)[C@@H]12` [Compound 77] belongs 0 to 20%; to `C=C1C(=O)O[C@H]2[C@H]1CCC(C)=C1CC[C@@](C)(OC(=O)NCc3ccccc3)[C@@H]12` [Compound 79], 20 to 40%; to `C=C1C(=O)O[C@H]2[C@H]1CCC(C)=C1CC[C@@](C)(OC(=O)N(C)C)[C@@H]12` [Compound 80], 20 to 40%. The same measure for `C=C1C(=O)O[C@H]2[C@H]1CCC(C)=C1CC[C@@](C)(OC(=O)N(CC)CC)[C@@H]12` [Compound 81]: 20 to 40%. Take `C=C1C(=O)O[C@H]2[C@H]1CCC(C)=C1CC[C@@](C)(OC(=O)N3CCC(C)CC3)[C@@H]12` [Compound 84]: the activation at 1 µM lay in the range of 20 to 40%. To `C=C1C(=O)O[C@H]2[C@H]1CCC(C)=C1CC[C@@](C)(OC(=O)N3CCN(C)CC3)[C@@H]12` [Compound 85] belongs 0 to 20%; to `C=C1C(=O)O[C@H]2[C@H]1CCC(C)=C1CC[C@@](C)(OC(=O)N3CCN(CC)CC3)[C@@H]12` [Compound 86], 20 to 40%. To `C=C1C(=O)O[C@H]2[C@H]1CCC(C)=C1CC[C@@](C)(OC(=O)N3CCOCC3)[C@@H]12` [Compound 87] belongs greater than 40%; to `C=C1C(=O)O[C@H]2[C@H]1CCC(C)=C1CC[C@@](C)(OC(=O)NCC(C)C)[C@@H]12` [Compound 88], 20 to 40%. On to `C=C1C(=O)O[C@H]2[C@H]1CCC(C)=C1CC[C@@](C)(OC(=O)NCC(F)F)[C@@H]12` [Compound 89], for which the activation at 1 µM was 20 to 40%.

On to `C=C1C(=O)O[C@H]2[C@H]1CCC(C)=C1CC[C@@](C)(OC(=O)N(C)CCC)[C@@H]12` [Compound 90], for which the activation at 1 µM was 20 to 40%. With `C=C1C(=O)O[C@H]2[C@H]1CCC(C)=C1CC[C@@](C)(OC(=O)N(CC)CCC)[C@@H]12` [Compound 91], the activation at 1 µM is 20 to 40%. To `C=C1C(=O)O[C@H]2[C@H]1CCC(C)=C1CC[C@@](C)(OC(=O)NCCCN3CCOCC3)[C@@H]12` [Compound 92] belongs 20 to 40%; to `C=C1C(=O)O[C@H]2[C@H]1CCC(C)=C1CC[C@@](C)(OC(=O)NCCCN3CCN(C)CC3)[C@@H]12` [Compound 93], 20 to 40%.

With `C=C1C(=O)O[C@H]2[C@H]1CCC(C)=C1CC[C@@](C)(OC(=O)N3CCC(N4CCOCC4)CC3)[C@@H]12` [Compound 94], the activation at 1 µM fell in the range of 20 to 40%. To `C=C1C(=O)O[C@H]2[C@H]1CCC(C)=C1CC[C@@](C)(OC(=O)NCCN3CCN(C)CC3)[C@@H]12` [Compound 95] belongs 20 to 40%.

In the case of `CC1=C2CC[C@@](C)(OC(=O)N3CCCCC3)[C@@H]2[C@H]2OC(=O)[C@@H](CN3CCCC3)[C@@H]2CC1` [Compound 96], the activation at 1 µM was 0 to 20%.

`CC1=C2CC[C@@](C)(OC(=O)N3CCCCC3)[C@@H]2[C@H]2OC(=O)[C@@H](CN(C)C)[C@@H]2CC1` [Compound 97]: the activation at 1 µM was 0 to 20%.
